Data from patent US11498899B2, “Nitrone herbicides” (FMC Corporation, priority 2016, dated 2022).

Tests used:
[1] = tested on: barnyardgrass (Echinochloa crus-galli); assay: Test B flooded paddy test, visual rating 0-100; settings: Flood, 250 g ai/ha, applied to paddy water, rated after 13 to 15 days
[2] = tested on: barnyardgrass (Echinochloa crus-galli); assay: Test A preemergence, visual injury rating 0-100 (0 no effect, 100 complete control); format: in vivo
rice (Oryza sativa) = assay: Test B flooded paddy test, visual rating 0-100 (0 no effect, 100 complete control); settings: Flood, 250 g ai/ha, applied to paddy water, rated after 13 to 15 days
[3] = tested on: ragweed (common ragweed, Ambrosia elatior); assay: Test A preemergence, visual injury rating 0-100; format: in vivo
[4] = tested on: ryegrass, Italian (Italian ryegrass, Lolium multiflorum); assay: Test A preemergence, visual injury rating 0-100; format: in vivo
[5] = tested on: foxtail, giant (giant foxtail, Setaria faberii); assay: Test A preemergence, visual injury rating 0-100; format: in vivo
[6] = tested on: pigweed (Amaranthus retroflexus); assay: Test A preemergence, visual injury rating 0-100; format: in vivo
kochia (Kochia scoparia) [7] = assay: Test A preemergence, visual injury rating 0-100; format: in vivo
[8] = tested on: ducksalad (Heteranthera limosa); assay: Test B flooded paddy test, visual rating 0-100; settings: Flood, 250 g ai/ha, applied to paddy water, rated after 13 to 15 days
[9] = tested on: ragweed (common ragweed, Ambrosia elatior); assay: Test A postemergence, visual injury rating 0-100; format: in vivo; settings: 0 to 100 scale
[10] = tested on: ryegrass, Italian (Italian ryegrass, Lolium multiflorum); assay: Test A postemergence, visual injury rating 0-100; format: in vivo; settings: 0 to 100 scale
[11] = tested on: foxtail, giant (giant foxtail, Setaria faberii); assay: Test A postemergence, visual injury rating 0-100; format: in vivo; settings: 0 to 100 scale
[12] = tested on: pigweed (Amaranthus retroflexus); assay: Test A postemergence, visual injury rating 0-100; format: in vivo; settings: 0 to 100 scale
corn (Zea mays) = assay: Test A postemergence, visual injury rating 0-100; format: in vivo; settings: 0 to 100 scale
kochia (Kochia scoparia) [13] = assay: Test A postemergence, visual injury rating 0-100; format: in vivo; settings: 0 to 100 scale
[14] = tested on: galium (catchweed bedstraw, Galium aparine); assay: Test A postemergence, visual injury rating 0-100; format: in vivo; settings: 0 to 100 scale
[15] = tested on: barnyardgrass (Echinochloa crus-galli); assay: Test A postemergence, visual injury rating 0-100; format: in vivo; settings: 0 to 100 scale
[16] = tested on: wheat (Triticum aestivum); assay: Test A postemergence, visual injury rating 0-100; format: in vivo; settings: 0 to 100 scale
[17] = tested on: blackgrass (Alopecurus myosuroides); assay: Test A postemergence, visual injury rating 0-100; format: in vivo; settings: 0 to 100 scale

CC1=[N+]([O-])C(C(=O)Nc2cccc(F)c2F)C(c2cccc(Cl)n2)C1 (stereo not shown) [Compound 89]
0: Barnyardgrass plant response rating (0 to 100 scale) [1] | Barnyardgrass plant response rating (0 to 100 scale) ([2]; 125 g ai/ha) | Rice plant response rating (0 to 100 scale) (rice (Oryza sativa)) | Ragweed plant response rating (0 to 100 scale) ([3]; 125 g ai/ha) | Ragweed plant response rating (0 to 100 scale) ([3]; 500 g ai/ha) | Ryegrass, Italian plant response rating (0 to 100 scale) ([4]; 125 g ai/ha) | Ryegrass, Italian plant response rating (0 to 100 scale) ([4]; 500 g ai/ha) | Foxtail, Giant plant response rating (0 to 100 scale) ([5]; 125 g ai/ha) | Pigweed plant response rating (0 to 100 scale) ([6]; 125 g ai/ha) | Pigweed plant response rating (0 to 100 scale) ([6]; 500 g ai/ha) | Kochia plant response rating (0 to 100 scale) (kochia (Kochia scoparia) [7]; 125 g ai/ha) | Kochia plant response rating (0 to 100 scale) (kochia (Kochia scoparia) [7]; 500 g ai/ha) | Ragweed plant response rating ([9]; 125 g ai/ha) | Ragweed plant response rating ([9]; 500 g ai/ha) | Ryegrass, Italian plant response rating ([10]; 125 g ai/ha) | Ryegrass, Italian plant response rating ([10]; 500 g ai/ha) | Foxtail, Giant plant response rating ([11]; 125 g ai/ha) | Foxtail, Giant plant response rating ([11]; 500 g ai/ha) | Pigweed plant response rating ([12]; 125 g ai/ha) | Pigweed plant response rating ([12]; 500 g ai/ha) | Corn plant response rating (corn (Zea mays); 125 g ai/ha) | Corn plant response rating (corn (Zea mays); 500 g ai/ha) | Kochia plant response rating (kochia (Kochia scoparia) [13]; 125 g ai/ha) | Kochia plant response rating (kochia (Kochia scoparia) [13]; 500 g ai/ha) | Galium plant response rating ([14]; 125 g ai/ha) | Galium plant response rating ([14]; 500 g ai/ha) | Wheat plant response rating ([16]; 125 g ai/ha) | Wheat plant response rating ([16]; 500 g ai/ha) | Blackgrass plant response rating ([17]; 125 g ai/ha) | Blackgrass plant response rating ([17]; 500 g ai/ha)
20: Barnyardgrass plant response rating ([15]; 125 g ai/ha)
40: Barnyardgrass plant response rating (0 to 100 scale) ([2]; 500 g ai/ha)
30: Foxtail, Giant plant response rating (0 to 100 scale) ([5]; 500 g ai/ha) | Ducksalad plant response rating (0 to 100 scale) [8] | Barnyardgrass plant response rating ([15]; 500 g ai/ha)

CC1=[N+]([O-])C(C(=O)Nc2cccc(F)c2F)C(c2cccc(C(F)(F)F)n2)C1 (stereo not shown) [Compound 90]
90: Barnyardgrass plant response rating (0 to 100 scale) ([2]; 125 g ai/ha) | Barnyardgrass plant response rating (0 to 100 scale) ([2]; 500 g ai/ha) | Foxtail, Giant plant response rating (0 to 100 scale) ([5]; 500 g ai/ha) | Ducksalad plant response rating (0 to 100 scale) [8] | Foxtail, Giant plant response rating ([11]; 500 g ai/ha)
15: Barnyardgrass plant response rating (0 to 100 scale) [1]
20: Foxtail, Giant plant response rating ([11]; 125 g ai/ha) | Galium plant response rating ([14]; 125 g ai/ha) | Galium plant response rating ([14]; 500 g ai/ha)
0: Rice plant response rating (0 to 100 scale) (rice (Oryza sativa)) | Ragweed plant response rating (0 to 100 scale) ([3]; 125 g ai/ha) | Ragweed plant response rating (0 to 100 scale) ([3]; 500 g ai/ha) | Ryegrass, Italian plant response rating (0 to 100 scale) ([4]; 125 g ai/ha) | Ryegrass, Italian plant response rating (0 to 100 scale) ([4]; 500 g ai/ha) | Pigweed plant response rating (0 to 100 scale) ([6]; 125 g ai/ha) | Pigweed plant response rating (0 to 100 scale) ([6]; 500 g ai/ha) | Kochia plant response rating (0 to 100 scale) (kochia (Kochia scoparia) [7]; 125 g ai/ha) | Ragweed plant response rating ([9]; 125 g ai/ha) | Ragweed plant response rating ([9]; 500 g ai/ha) | Ryegrass, Italian plant response rating ([10]; 125 g ai/ha) | Ryegrass, Italian plant response rating ([10]; 500 g ai/ha) | Pigweed plant response rating ([12]; 125 g ai/ha) | Pigweed plant response rating ([12]; 500 g ai/ha) | Corn plant response rating (corn (Zea mays); 125 g ai/ha) | Corn plant response rating (corn (Zea mays); 500 g ai/ha) | Kochia plant response rating (kochia (Kochia scoparia) [13]; 125 g ai/ha) | Kochia plant response rating (kochia (Kochia scoparia) [13]; 500 g ai/ha) | Wheat plant response rating ([16]; 125 g ai/ha) | Wheat plant response rating ([16]; 500 g ai/ha)
80: Barnyardgrass plant response rating ([15]; 500 g ai/ha)
30: Blackgrass plant response rating ([17]; 125 g ai/ha)
50: Foxtail, Giant plant response rating (0 to 100 scale) ([5]; 125 g ai/ha) | Blackgrass plant response rating ([17]; 500 g ai/ha)
60: Kochia plant response rating (0 to 100 scale) (kochia (Kochia scoparia) [7]; 500 g ai/ha)
10: Barnyardgrass plant response rating ([15]; 125 g ai/ha)
